Measurements reported in patent EP4772505A1, “COMPOUND FOR DEGRADING ANDROGEN RECEPTOR AND MEDICAL USE THEREOF” (Ubix Therapeutics, Inc., priority 2023, dated 2025).

Molecular target: T1, Androgen Receptor (AR) (Homo sapiens, UniProt P10275)
T1 sequence (P10275 1-920): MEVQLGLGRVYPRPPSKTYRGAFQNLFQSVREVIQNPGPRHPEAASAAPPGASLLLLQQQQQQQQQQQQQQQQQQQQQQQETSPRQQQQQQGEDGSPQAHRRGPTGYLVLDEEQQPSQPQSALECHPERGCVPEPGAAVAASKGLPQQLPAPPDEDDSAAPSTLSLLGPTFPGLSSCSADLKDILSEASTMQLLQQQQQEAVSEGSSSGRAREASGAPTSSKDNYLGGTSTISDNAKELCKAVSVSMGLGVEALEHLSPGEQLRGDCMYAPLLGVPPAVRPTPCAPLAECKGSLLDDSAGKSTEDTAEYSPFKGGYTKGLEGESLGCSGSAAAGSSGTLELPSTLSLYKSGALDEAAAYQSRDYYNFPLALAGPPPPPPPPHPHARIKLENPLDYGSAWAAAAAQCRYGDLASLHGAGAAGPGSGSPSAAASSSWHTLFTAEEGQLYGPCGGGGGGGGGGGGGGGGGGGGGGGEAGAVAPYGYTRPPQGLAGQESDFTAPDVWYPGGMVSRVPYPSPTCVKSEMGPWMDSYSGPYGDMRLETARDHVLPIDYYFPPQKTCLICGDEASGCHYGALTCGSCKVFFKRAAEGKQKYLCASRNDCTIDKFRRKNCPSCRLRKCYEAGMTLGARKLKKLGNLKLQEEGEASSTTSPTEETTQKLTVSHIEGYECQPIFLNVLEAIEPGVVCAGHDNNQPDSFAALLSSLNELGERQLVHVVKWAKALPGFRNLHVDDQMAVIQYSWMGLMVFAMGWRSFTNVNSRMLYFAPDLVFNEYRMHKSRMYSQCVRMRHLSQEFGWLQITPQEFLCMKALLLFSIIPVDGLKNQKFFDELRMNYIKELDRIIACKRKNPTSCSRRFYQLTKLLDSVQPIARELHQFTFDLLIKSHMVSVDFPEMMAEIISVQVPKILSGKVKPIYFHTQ
Experiment: Pharmacodynamic efficacy: AR degradation in tumor of VCaP xenograft model after oral administration
Type: in vivo, CB17/SCID mice
Parameters: After sacrifice, tumor tissue was collected, washed in PBS, and stored at -80°C; from tissue; host or cells: VCaP xenograft tumour from CB17/SCID mice
Details: 10 mg/kg orally once daily for three days, tumor collected 6 hours after final administration
Protocol: The protocol for the creation of a xenograft model and pharmacodynamic experiments using VCaP cells was as follows.
[Cell Culture] VCaP cells were resuspended at a density of 4 x 10^5/mL in a mixture of DMEM MEDIUM (Hyclone, SH30243.01), 10% FBS (Hyclone, SV30207.02), 1% Penicillin-streptomycin (Welgene, LS 202-02), and 1x Non-essential amino acid solution (100x) (Sigma, M7145-100mL). 50 mL of the cells were seeded into CELLBIND cell culture flasks (150 cm^2) (Corning, 3291) and cultured for 5 days.
[Xenotransplantation] The media was removed from the flask containing cultured VCaP cells and washed with 10 mL of PBS (Welgene, LB001-02). After removing the PBS, 2 mL of 1x 0.05% Trypsin-EDTA (Welgene, LS015-01) was added and treated in a cell incubator for 3 minutes. Then, 10 mL of media was added, pipetted, and placed in a 50 mL tube. The pellets were collected by centrifugation at 500 g for 5 minutes. The collected pellets were washed once more with 20 mL of PBS. The washed pellets were collected by centrifugation at 500 g for 5 minutes. The PBS was removed, and 500 µL of HBSS (Gibco, 14025092) was added and pipetted. After diluting 100-fold in HBSS and measuring the cell count, the concentration was calculated as 3 x 10^6/50 µL/mouse, diluted in HBSS, and stored in an ice bucket. An equal volume of matrigel (R&D system, 3432-005-01) was added to the stored cells, homogenized by pipetting, and then 100 µL per mouse was inoculated subcutaneously into the right flank of CB17/SCID mice.
[Measurement of tumor size and division into groups] After 2-3 weeks of inoculation with cancer cells, the transplanted cancer cells grew and were measured in size using a caliper. The measured tumor size was calculated as [long axis x short axis^2 x 0.5]. When the tumor size exceeded approximately […], the experimental animals were divided into groups based on the average tumor size and the concentration of the drug to be administered. The groups always included a group containing only the solvent (vehicle) without the drug.
[Drug Preparation and Administration] The drug was dissolved in a solvent and orally administered to each experimental animal in a volume of 200 µL (approximately 8 mL/kg). The solvent composition was 3% DMSO (Sigma, D8418), 10% Cremophor EL (Sigma, C5135), 20% PEG400 (Sigma, 06855-1KG), and 67% distilled water. The preparation method was as follows. Depending on the drug concentration (e.g., 10 or 30 mg/kg), each drug was weighed and dissolved in DMSO corresponding to 3% of the total solvent volume. […]
[Cancer Tissue Extraction] […] Changes in tumor size were measured during the prescribed administration period, and the mice were sacrificed 6 hours after the final administration. […]

| SMILES | AR degradation in tumor (%) |
| --- | --- |
| N#Cc1ccc(N2CCC(C(=O)Nc3ccc(OC4CCN(CC5CCN(c6ccc(N[C@H]7CCC(=O)NC7=O)cc6F)CC5)CC4)cn3)CC2)cc1Cl [Example 9, (S)-1-(3-chloro-4-cyanophenyl)-N-(5-((1-((1-(4-((2,6-dioxopiperidin-3-yl)amino)-2-fluorophenyl)piperidin-4-yl)methyl)piperidin-4-yl)oxy)pyridin-2-yl)piperidine-4-carboxamide] | 97 |
| N#Cc1ccc(N2CCC(C(=O)Nc3ccc(OC4CCN(CC5CCN(c6ccc(N[C@H]7CCC(=O)NC7=O)cc6F)CC5)CC4)cn3)CC2)cc1C(F)(F)F [Example 2, (S)-1-(4-cyano-3-(trifluoromethyl)phenyl)-N-(5-((1-((1-(4-((2,6-dioxopiperidin-3-yl)amino)-2-fluorophenyl)piperidin-4-yl)methyl)piperidin-4-yl)oxy)pyridin-2-yl)piperidine-4-carboxamide] | 96 |
| N#Cc1ccc(N2CCC(C(=O)Nc3ccc(OC4CCN(CC5CCN(c6ccc(NC7CCC(=O)NC7=O)cc6F)CC5)CC4)cn3)CC2)cc1C(F)(F)F (stereo not shown) [Example 1, 1-(4-cyano-3-(trifluoromethyl)phenyl)-N-(5-((1-((1-(4-((2,6-dioxopiperidin-3-yl)amino)-2-fluorophenyl)piperidin-4-yl)methyl)piperidin-4-yl)oxy)pyridin-2-yl)piperidine-4-carboxamide] | 86 |
| N#Cc1ccc(N2CCC(C(=O)Nc3ccc(OC4CCN(CC5CCN(c6ccc(N[C@@H]7CCC(=O)NC7=O)cc6F)CC5)CC4)cn3)CC2)cc1C(F)(F)F [Example 3, (R)-1-(4-cyano-3-(trifluoromethyl)phenyl)-N-(5-((1-((1-(4-((2,6-dioxopiperidin-3-yl)amino)-2-fluorophenyl)piperidin-4-yl)methyl)piperidin-4-yl)oxy)pyridin-2-yl)piperidine-4-carboxamide] | 89 |
